According to patent publication US7001983B1, “Antipathogenic synthetic peptides and compositions comprising them” (priority 1997, dated 2006):
Values after ≈ are worked out from the molar mass of the structure shown. Square brackets hold non-standard residues; d marks the D form. Peptide text beside a SMILES is read from it.

Experiments:
[1] = tested on: Pseudomonas aeruginosa ATCC 27853; conditions: 100% inhibition of growth after 18–20 h
Method: (viii) Antibacterial activity of the peptides.
Antibacterial activity of the mixtures was determined as described in Experimental procedures, section (xii).

[2] = Membrane permeation, diffusion potential assay; conditions: dissipation of diffusion potential
Method: (xi) Membrane permeation induced by the peptides. Membrane permeation was assessed utilizing the diffusion potential assay (Loew et al., 1983; Sims et al., 1974) as previously described (Shai et al., 1991). In a typical experiment, in a glass tube, 4 μl of a liposomes suspension (final phospholipids concentration of 33 μM), in a K^+ containing buffer (50 mM K2SO4, 25 mM HEPES-SO4^−2, pH 6.8), was diluted in 1 ml of an isotonic K^+ free buffer (50 mM Na2SO4, 25 mM HEPES-SO4^−2, pH 6.8), and the fluorescent, potential-sensitive dye diS-C2-5 was then added. Valinomycin (1 μl of 10^−7 M) was added to the suspension in order to slowly create a negative diffusion potential inside the vesicles, which led to a quenching of the dye's fluorescence. Once the fluorescence had stabilized, which took 3–10 minutes, peptides were added. The subsequent dissipation of the diffusion potential, as reflected by an increase in fluorescence, was monitored on a Perkin Elmer LS-50B spectrofluorometer, with the excitation set at 620 nm, the emission at 670 nm, and the gain adjusted to 100%. The percentage of fluorescence recovery, Ft, was defined as: Ft=(It−I0/If−I0)×100 where I0=the initial fluorescence, If=the total fluorescence observed before the addition of valinomycin, and It=the fluorescence observed after adding the peptide at time t.
2.5.1 Membrane permeability induced by the peptides. […]

[3] = CD spectroscopy, α-helix content; format: physicochemical; conditions: CD in 40% TFE
Method: (vii) CD Spectroscopy. The CD spectra of the peptides were measured with a Jasco J-500A spectropolarimeter after calibrating the instrument with (+)-10-camphorsulfonic acid. The spectra were scanned at 23° C. in a capped, quartz optical cell with a 0.5 mm path length. Spectra were obtained at wavelengths of 250 to 190 nm. Eight scans were taken for each peptide at a scan rate of 20 nm/min. […] Fractional helicities (Greenfield and Fasman, 1969; Wu et al., 1981) were calculated as follows: [formula] where [θ]222 is the experimentally-observed mean residue ellipticity at 222 nm, and the values for [θ]^0222 and [θ]^100222, which correspond to 0% and 100% helix content at 222 nm, are estimated to be 2000 and 32000 deg·cm^2/dmole,
1.2 Determination of the secondary structure of the peptides. The secondary structures of the peptides 1, 8, 12, 14, were evaluated from their CD spectra in 40% TFE, a solvent that strongly promotes an α-helical structure, as described in Experimental Procedures, section (vii), and in PBS (35 mM phosphate buffer/0.15 M NaCl, pH 7.0).

[4] = phosphatidylglycerol/phosphatidylcholine; Beschiaschvili and Seelig, 1990; cited from earlier work
[5] = tested on: Micrococcus Iuteus ATCC 9341; assay: Antibacterial activity (MIC), growth inhibition in LB medium; format: cell-based, Micrococcus luteus; conditions: 100% inhibition of growth after 18–20 h
Method: (viii) Antibacterial activity of the peptides. The antibacterial activity of the diastereomers was examined in sterile 96-well plates (Nunc F96 microtiter plates) in a final volume of 100 μL as follows: Aliquots (50 μl) of a suspension containing bacteria at a concentration of 10^6 Colony-Forming Units (CFU)/ml LB (Lauria broth) medium were added to 50 μL of water or 66% pooled normal human serum in PBS, containing the peptide in 2-fold serial dilutions. Growth inhibition was determined by measuring the absorbance at 492 nm with a Microplate autoreader E1309 (Bio-tek Instruments), following incubation for 18–20 h at 37° C. […] The bacteria used were: Escherichia coli D21, Pseudomonas aeruginosa ATCC 27853, Acinetobacter calcoaceticus Ac11, Salmonella typhimurium LT2, Bacillus megaterium Bm11, Micrococcus Iuteus ATCC 9341, Bacillus subtilis ATCC 6051.

[6] = tested on: human red blood cells (hRBC); assay: Hemolysis of human red blood cells; format: cell-based; conditions: for % hemolysis at 50 μM peptide: 30 min at 37° C.
Method in brief: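 Washed fresh erythrocytes at 5% v/v final in PBS pH 7.3 exposed to peptide 30 min at 37° C with agitation. Hemoglobin release read as supernatant absorbance at 540 nm after centrifugation, scaled between PBS (0%) and 1% Triton (100%).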

Bacillus megaterium Bm11 = format: cell-based; conditions: 100% inhibition of growth after 18–20 h
[7] = tested on: Acinetobacter calcoaceticus Ac11; format: cell-based; conditions: 100% inhibition of growth after 18–20 h
[8] = tested on: Bacillus subtilis ATCC 6051; format: cell-based; conditions: 100% inhibition of growth after 18–20 h
Escherichia coli D21 = format: cell-based; conditions: 100% inhibition of growth after 18–20 h
[9] = tested on: Cryptococcus neoformans (IP960-67); assay: Antifungal activity (MIC); format: cell-based; conditions: 100% inhibition of growth after 48 h at 30° C.
Method: (§1) The antifungal activity of the pardaxin-derived peptides 1 and 16 (see Example 1 above) was examined in sterile 96-well plates (Nunc F96 microtiter plates) in a final volume of 100 μL as follows: Fifty microliters of a suspension containing fungi at concentration of 1×10^6 Colony-Forming Units (CFU)/ml in culture medium (Sabouraud's glucose broth medium) was added to 50 μL of water containing the peptide in serial 2-fold dilutions in water. Inhibition of growth was determined by measuring the absorbance at 492 nm with a Microplate autoreader E1309 (Bio-tek Instruments), after an incubation time of 48 h at 30° C. […] The fungi used were: Candida albicans (IP886-65) and Cryptococcus neoformans (IP960-67).

[10] = tested on: Candida albicans (IP886-65); assay: Antifungal activity (MIC); format: cell-based; conditions: 100% inhibition of growth after 48 h at 30° C.
Method: as §1

[11] = tested on: Leishmania mexicana NR strain promastigotes; assay: Anti-Leishmania activity, counting living promastigotes; format: cell-based; conditions: 100% death after 24 h of incubation
Method: The melittin-derived diastereomer peptide 20 (see Example 2 above) and the Leu/Lys diastereomer peptide 23 (see Example 3 above) were tested against Leishmania. Promastigotes of the Leishmania mexicana NR strain to be assayed were cultured at 27° C. in RPMI 1640 medium supplemented with 10% fetal bovine serum. Parasite were harvested by centrifugation at 1200×g for 10 min at 4° C. and washed twice with PBS (50 mM sodium phosphate, 150 mM NaCl, pH 7). The washed promastigotes were counted in a hemocytometer and adjusted to 1×10^6 parasites/ml. Aliquotes of this suspension were assayed in a final volume of 100 μl by counting living (motile) cells after 24 h of incubation at 26° C. in the absence or presence of various concentrations of the diastereomers.

Sendai virus (Z strain) = conditions: no release of hemoglobin after incubation 37° C. 60 min
Method: Sendai virus (Z strain) was grown in the allantoic sac of 10–11 day old embryonated chicken eggs, harvested 48 h after injection and purified. The virus was resuspended in buffer composed of 160 mM NaCl, 20 mM tricine, pH 7.4, and stored at −70° C. Virus haemagglutinating activity was measured in haemagglutinating units (HAU). One microliter contained ˜60000 HAU. Fresh human blood was obtained from a blood bank and stored for up to 1 month at 4° C. Prior to use, erythrocytes were washed twice with PBS pH 7.2, and diluted to the desired concentration (% v/v) with the same buffer. Virions, erythrocytes and peptides were mixed in different orders of addition and various amounts. The final incubation was always at 37° C. for 60 min. followed by centrifugation at 5700 g for 10 min to remove intact cells. In all cases duplicate samples were used and two aliquots were taken from the supernatant of each sample to two wells of a 96-well plate. The amount of hemoglobin release was monitored by measuring the absorbance of the wells with the ELISA, plate reader at 540 nm. Antiviral activity was expressed as the minimal inhibitory concentration (MIC), the concentration at which no release of hemoglobin was observed after incubation.

[12] = tested on: human red blood cells (hRBC); conditions: Oren and Shai, 1996; cited from earlier work

Compound	Minimal Inhibitory Concentration M. luteus (ATCC 9341) [5] [µM]	% hemolysis at 50 μM peptide ([6]; hRBC) [%]	Minimal Inhibitory Concentration B. megaterium (Bm11) (Bacillus megaterium Bm11) [µM]	Minimal Inhibitory Concentration A. calcoaceticus (Ac11) [7] [µM]	Minimal Inhibitory Concentration E. coli (D21) (Escherichia coli D21) [µM]	MIC Leishmania mexicana [11] [µM]	further results
CC[C@H](C)[C@H](NC(=O)CN)C(=O)NCC(=O)N[C@@H](C)C(=O)N[C@H](C(=O)N[C@@H](CC(C)C)C(=O)N[C@@H](CCCCN)C(=O)N[C@H](C(=O)N[C@@H](CC(C)C)C(=O)N[C@H](C(=O)N[C@H](C(=O)NCC(=O)N[C@@H](CC(C)C)C(=O)N1CCC[C@H]1C(=O)N[C@@H](C)C(=O)N[C@@H](CC(C)C)C(=O)N[C@H](C(=O)N[C@@H](CO)C(=O)N[C@@H](Cc1c[nH]c2ccccc12)C(=O)N[C@H](C(=O)N[C@@H](CCCCN)C(=O)N[C@@H](CCCNC(=N)N)C(=O)N[C@@H](CCCCN)C(=O)N[C@@H](CCCNC(=N)N)C(=O)N[C@@H](CCC(N)=O)C(=O)N[C@@H](CCC(N)=O)C(N)=O)[C@@H](C)CC)[C@@H](C)CC)[C@@H](C)O)[C@@H](C)O)C(C)C)C(C)C [Melittin]	0.4						Minimal Inhibitory Concentration P. aeruginosa (ATCC 27853) [1]: 25 µM; membrane permeating activity with PC (zwitterionic) vesicles [2]: highly active; α-helix content [3]: 73%; partition coefficient reported for melittin binding [4]: 4.5±0.6×10^4 M^−1
CC[C@H](C)[C@H](NC(=O)[C@H](CCCCN)NC(=O)[C@H]1CCCN1C(=O)[C@@H](NC(=O)[C@H](CC(C)C)NC(=O)[C@H](C)NC(=O)[C@H](Cc1ccccc1)NC(=O)[C@H](Cc1ccccc1)NC(=O)CN)[C@@H](C)CC)C(=O)N[C@H](C(=O)N[C@@H](CO)C(=O)N[C@@H](CO)C(=O)N1CCC[C@H]1C(=O)N[C@@H](CC(C)C)C(=O)N[C@@H](Cc1ccccc1)C(=O)N[C@@H](CCCCN)C(=O)N[C@H](C(=O)N[C@H](CC(C)C)C(=O)N[C@H](CC(C)C)C(=O)N[C@@H](CO)C(=O)N[C@@H](C)C(=O)N[C@H](C(=O)NCC(=O)N[C@@H](CO)C(=O)N[C@@H](C)C(=O)N[C@@H](CC(C)C)C(=O)N[C@@H](CO)C(=O)N[C@@H](CO)C(=O)N[C@@H](CO)C(=O)NCC(=O)NCC(=O)N[C@@H](CCC(N)=O)C(=O)N[C@@H](CCC(=O)NCCN)C(=O)NCCN)C(C)C)[C@@H](C)O)[C@@H](C)CC [Peptide 1, [D]P^7L^18L^19-TApar]	12.5	5	0.9	6	6		hemolytic activity up to the maximum concentration tested ([6]; hRBC, up to 50 μM): practically devoid of hemolytic activity; Minimal Inhibitory Concentration B. subtilis (ATCC 6051) [8]: 3 µM; Minimal Inhibitory Concentration Cryptococcus neoformans (IP960-67) [9]: 50 µM; Minimal Inhibitory Concentration Candida albicans (IP886-65) [10]: 35 µM
CC[C@@H](C)[C@@H](NC(=O)[C@H](CC(C)C)NC(=O)[C@H](C)NC(=O)[C@@H]1CCCN1C(=O)[C@H](CC(C)C)NC(=O)CNC(=O)[C@@H](NC(=O)[C@@H](NC(=O)[C@H](CC(C)C)NC(=O)[C@H](NC(=O)[C@H](CCCCN)NC(=O)[C@H](CC(C)C)NC(=O)[C@H](NC(=O)[C@H](C)NC(=O)CNC(=O)[C@@H](NC(=O)CN)[C@@H](C)CC)C(C)C)C(C)C)[C@@H](C)O)[C@@H](C)O)C(=O)N[C@@H](CO)C(=O)N[C@@H](Cc1c[nH]c2ccccc12)C(=O)N[C@H](C(=O)N[C@H](CCCCN)C(=O)N[C@@H](CCCNC(=N)N)C(=O)NCCN)[C@@H](C)CC [Peptide 20, [D]-V^5V^8I^17K^21-[1-22]-TAmel]	29	0	0.8	7	8	32 (≈ 75.2 µg/mL)	
CC(C)C[C@H](NC(=O)[C@H](CCCCN)NC(=O)[C@@H](CC(C)C)NC(=O)[C@@H](CC(C)C)NC(=O)[C@H](CC(C)C)NC(=O)[C@@H](N)CCCCN)C(=O)N[C@@H](CC(C)C)C(=O)N[C@H](CC(C)C)C(=O)N[C@@H](CCCCN)C(=O)N[C@H](CC(C)C)C(=O)N[C@@H](CC(C)C)C(=O)N[C@@H](CCCCN)C(N)=O [Peptide 23, [D]-L^3,4,8,10-K4L8] (H-KL[dL][dL]KLL[dL]K[dL]LK-NH2)						17 (≈ 24.4 µg/mL)	hemolytic activity in comparison to melittin (fold less) [6]: > 100 fold; % hemolysis at 100 μM ([6]; red cells of human, 100): 0%; MIC Sendai virus (Sendai virus (Z strain)): 80 µM (≈ 115 µg/mL)
Pardaxin							hemolytic activity towards human erythrocytes relative to melittin (fold less) [12]: 40–100 fold
